# *1 amine or outer side, *2 acyl side, *3 side chain or, on linkers, in order; H or OH if unused. Where a SMILES comes first, the peptide text is derived from it. Bridges are numbered along the chain shown (N, C = ends). [ ]: non-standard residue; d: D form. The star is where a group is joined. X36 = CC(C)CCN([C@@H](Cc1ccc(C(F)(F)F)cc1)C(=O)[*:2])[*:1]; hPhe(3-Cl-4-CF3) = N[C@@H](CCc1ccc(C(F)(F)F)c(Cl)c1)C(=O)O; NPrPhe(4-CF3) = CCCN[C@@H](Cc1ccc(C(F)(F)F)cc1)C(=O)O; NMeGly(cPent) = CN[C@H](C(=O)O)C1CCCC1; Pro(4,4-F2) = O=C(O)[C@@H]1CC(F)(F)CN1; Hyp = O=C(O)[C@@H]1C[C@@H](O)CN1; NMeD = CN[C@@H](CC(=O)O)C(=O)O; NMeL = CN[C@@H](CC(C)C)C(=O)O; NMeNva = CCC[C@H](NC)C(=O)O; Morpholide = C1CN(*)CCO1; Ac5c = NC1(C(=O)O)CCCC1; Aze = O=C(O)[C@@H]1CCN1; Sar = CNCC(=O)O
# How the values were obtained:
# [1] = target: GDP-bound HRAS wild-type protein (Homo sapiens, UniProt P01112); test: Binding to HRAS by surface plasmon resonance (SPR), Single Cycle Kinetics; conditions: SPR
# Sequence of GDP-bound HRAS wild-type protein (P01112 whole entry): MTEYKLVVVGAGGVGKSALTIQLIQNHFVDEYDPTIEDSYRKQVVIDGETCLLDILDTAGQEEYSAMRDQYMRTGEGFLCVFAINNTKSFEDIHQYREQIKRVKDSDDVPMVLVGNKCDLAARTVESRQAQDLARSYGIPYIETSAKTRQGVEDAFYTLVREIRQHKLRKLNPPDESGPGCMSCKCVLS
# [2] = target: GDP-bound NRAS wild-type protein (Homo sapiens, UniProt P01111); test: Binding to NRAS by surface plasmon resonance (SPR), Single Cycle Kinetics; conditions: SPR
# Sequence of GDP-bound NRAS wild-type protein (P01111 whole entry): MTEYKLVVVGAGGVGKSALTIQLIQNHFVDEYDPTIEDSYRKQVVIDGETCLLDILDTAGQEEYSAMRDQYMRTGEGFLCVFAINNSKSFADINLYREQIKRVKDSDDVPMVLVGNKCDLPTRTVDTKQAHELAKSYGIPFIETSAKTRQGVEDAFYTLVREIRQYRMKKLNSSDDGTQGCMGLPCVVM
# [3] = KD ratio, GDP-bound HRAS wild-type vs GDP-bound KRAS wild-type
# [4] = KD ratio, GDP-bound NRAS wild-type vs GDP-bound KRAS wild-type
# [5] = GDP-bound HRAS wild-type vs GDP-bound KRAS wild-type
# [6] = GDP-bound NRAS wild-type vs GDP-bound KRAS wild-type
compound,measurement,setting,value
CCCC[C@H]1C(=O)NC2(CCC2)C(=O)N(C)[C@@H](C2CCCC2)C(=O)N(C)[C@H](C(=O)N(C)C)CC(=O)N(C)[C@@H](CC)C(=O)N[C@@H]([C@@H](C)CC)C(=O)N(C)CC(=O)N(C)[C@H]2C/C=C\CCN(C2=O)[C@@H](Cc2ccc(C(F)(F)F)cc2)C(=O)N(C)CC(=O)N[C@@H](CCc2cc(F)c(C(F)(F)F)c(F)c2)C(=O)N1C [PP1150],HRAS/KRAS (ratio of KD value with respect to HRAS to KD value with respect to KRAS),[1]; [3],A (a compound having 10 or more and less than 20 is denoted as A)
same,NRAS/KRAS (ratio of KD value with respect to NRAS to KD value with respect to KRAS),[2]; [4],AA (a compound having 20 or more is denoted as AA)
CCO[C@@H]1C[C@H]2C(=O)NC3(CC(C)(C)C3)C(=O)N(C)[C@@H](C(CC)CC)C(=O)N(C)[C@H](C(=O)N(C)C)CC(=O)N(C)[C@@H](COC)C(=O)N[C@@H]([C@@H](C)CC)C(=O)N(C)CC(=O)N(C)[C@H]3C/C=C\CCN(C3=O)[C@@H](CC3CCC(F)(F)CC3)C(=O)N(C)CC(=O)N[C@@H](CCc3ccc(C(F)(F)F)c(Cl)c3)C(=O)N2C1 [PP2444],HRAS/KRAS (ratio of KD value with respect to HRAS to KD value with respect to KRAS),[1]; [5],A (a compound having 10 or more and less than 20 is denoted as A)
same,NRAS/KRAS (ratio of KD value with respect to NRAS to KD value with respect to KRAS),[2]; [6],A (a compound having 10 or more and less than 20 is denoted as A)
CC[C@H](C)[C@@H]1NC(=O)[C@H](CC(C)C)N(C)C(=O)C[C@@H](C(=O)N2CCOCC2)N(C)C(=O)[C@H](C2CCCC2)N(C)C(=O)C2(CCCC2)NC(=O)[C@@H]2CCCN2C(=O)[C@H](CCc2ccc(C(F)(F)F)c(Cl)c2)NC(=O)CN(C)C(=O)[C@H](Cc2ccc(C(F)(F)F)cc2)N(CCC(C)C)C(=O)CN(C)C(=O)CN(C)C1=O [PP0126] ([NMeL]I[Sar][Sar][X36][Sar][hPhe(3-Cl-4-CF3)]P[Ac5c][NMeGly(cPent)][NMeD]-Morpholide; lactam N-11),HRAS/KRAS (ratio of KD for GDP-bound HRAS wild-type to KD for KRAS),[1]; KD ratio HRAS/KRAS,C (A compound having a KD ratio of 0.1 or more and less than 3 is denoted as C)
same,NRAS/KRAS (ratio of KD for GDP-bound NRAS wild-type to KD for KRAS),[2]; KD ratio NRAS/KRAS,C (A compound having a KD ratio of 0.1 or more and less than 3 is denoted as C)
C#CC[C@H]1C(=O)N[C@@H]([C@@H](C)CC)C(=O)N(C)CC(=O)N(C)[C@H]2C/C=C\CCN(C2=O)[C@@H](Cc2ccc(C(F)(F)F)cc2)C(=O)N(C)CC(=O)N[C@@H](CCc2cc(F)c(C(F)(F)F)c(F)c2)C(=O)N2C[C@H](F)C[C@H]2C(=O)NC2(CC(C)(C)C2)C(=O)N(C)[C@@H](C2CCCC2)C(=O)N(C)[C@H](C(=O)N(C)CC)CC(=O)N1C [PP1691],HRAS/KRAS (ratio of KD value for HRAS to KD value for KRAS),[1]; [3],A (a compound having 10 or more and less than 20 is denoted as A)
same,NRAS/KRAS (ratio of KD value for NRAS to KD value for KRAS),[2]; [4],A (a compound having 10 or more and less than 20 is denoted as A)
"CCC[C@H]1C(=O)N[C@@H]([C@@H](C)CC)C(=O)N(C)CC(=O)N(C)CC(=O)N(CCC)[C@@H](Cc2ccc(C(F)(F)F)cc2)C(=O)N(C)CC(=O)N[C@@H](CCc2ccc(C(F)(F)F)c(Cl)c2)C(=O)N2CC(F)(F)C[C@H]2C(=O)NC2(CCCC2)C(=O)N(C)[C@@H](C2CCCC2)C(=O)N(C)[C@H](C(=O)N2CCOCC2)CC(=O)N1C [PP0201] ([NMeNva]I[Sar][Sar][NPrPhe(4-CF3)][Sar][hPhe(3-Cl-4-CF3)][Pro(4,4-F2)][Ac5c][NMeGly(cPent)][NMeD]-Morpholide; lactam N-11)",HRAS/KRAS (ratio of KD for GDP-bound HRAS wild-type to KD for KRAS),[1]; KD ratio HRAS/KRAS,C (A compound having a KD ratio of 0.1 or more and less than 3 is denoted as C)
same,NRAS/KRAS (ratio of KD for GDP-bound NRAS wild-type to KD for KRAS),[2]; KD ratio NRAS/KRAS,B (a compound having 3 or more and less than 10 is denoted as B)
C#CC[C@H]1C(=O)N[C@@H]([C@@H](C)CC)C(=O)N(C)CC(=O)N(C)[C@H]2CCCCN(C2=O)[C@@H](Cc2ccc(C(F)(F)F)cc2)C(=O)N(C)CC(=O)N[C@@H](CCc2cc(F)c(C(F)(F)F)c(F)c2)C(=O)N2C[C@H](OCC)C[C@H]2C(=O)NC2(CCC2)C(=O)N(C)[C@@H](C2CCCC2)C(=O)N(C)[C@H](C(=O)N2CCOCC2)CC(=O)N1C [PP0711],HRAS/KRAS (ratio of KD value with respect to GDP-bound HRAS wild-type protein to KD value with respect to KRAS),[1]; KD ratio HRAS/KRAS,B (a compound having 3 or more and less than 10 is denoted as B)
same,NRAS/KRAS (ratio of KD value with respect to GDP-bound NRAS wild-type protein to KD value with respect to KRAS),[2]; KD ratio NRAS/KRAS,C (A compound having a KD ratio of 0.1 or more and less than 3 is denoted as C)
CCCN1C(=O)[C@@H]2CCN2C(=O)CN(C)C(=O)[C@H]([C@@H](C)CC)NC(=O)[C@H](CC(C)C)N(C)C(=O)C[C@@H](C(=O)N2CCOCC2)NC(=O)[C@H](C2CCCC2)N(C)C(=O)C2(CCCC2)NC(=O)[C@@H]2C[C@@H](OCC)CN2C(=O)[C@H](CCc2ccc(C(F)(F)F)c(Cl)c2)NC(=O)CN(C)C(=O)[C@@H]1Cc1ccc(C(F)(F)F)cc1 [PP0353] ([NMeL]I[Sar][Aze][NPrPhe(4-CF3)][Sar][hPhe(3-Cl-4-CF3)][Hyp](Et)[Ac5c][NMeGly(cPent)]D-Morpholide; lactam N-11),HRAS/KRAS (ratio of KD for GDP-bound HRAS wild-type to KD for KRAS),[1]; KD ratio HRAS/KRAS,B (a compound having 3 or more and less than 10 is denoted as B)
same,NRAS/KRAS (ratio of KD for GDP-bound NRAS wild-type to KD for KRAS),[2]; KD ratio NRAS/KRAS,C (A compound having a KD ratio of 0.1 or more and less than 3 is denoted as C)
CCO[C@@H]1C[C@H]2C(=O)NC3(CC(C)(C)C3)C(=O)N(C)[C@@H](C(CC)CC)C(=O)N(C)[C@H](C(=O)N(C)C)CC(=O)N(C)[C@@H](CC3CC3)C(=O)N[C@@H]([C@@H](C)CC)C(=O)N(C)CC(=O)N(C)[C@H]3C/C=C\CCN(C3=O)[C@@H](CC3CCC(F)(F)CC3)C(=O)N(C)CC(=O)N[C@@H](CCc3ccc(C(F)(F)F)c(OC)c3)C(=O)N2C1 [PP2480],HRAS/KRAS (ratio of KD value with respect to HRAS to KD value with respect to KRAS),[1]; [5],A (a compound having 10 or more and less than 20 is denoted as A)
same,NRAS/KRAS (ratio of KD value with respect to NRAS to KD value with respect to KRAS),[2]; [6],A (a compound having 10 or more and less than 20 is denoted as A)

# From patent publication US20250230193A1, “CYCLIC COMPOUND HAVING SELECTIVE KRAS INHIBITORY EFFECT ON HRAS AND NRAS” (CHUGAI SEIYAKU KABUSHIKI KAISHA, priority 2022, published 2025)
